According to ChEMBL document CHEMBL5724696, “Autophagy assay results for EUbOPEN Chemogenomics Library” (2024):

Key:
Format in all cases: functional, Homo sapiens
TERT-RPE1 = assay: (§1) Here: values are normalized to the negative (DMSO; defined as 0% autophagy induction) and positive (250nM Torin1; mTOR inhibitor; defined as maximal inducer of autophagy = 100%) control compounds and represented as % of autophagy induction. […] The impact of autophagy induction on cells is complex and depends on the affected target. As such, the magnitude of a phenotype may not be equally mirrored in the %-value of autophagy induction and vice versa. The dynamics of the induction may indicate the mode of activation: e.g. activation via phosphorylation or a signaling cascade may occur fast, while activation via transcription factors may take considerably longer. […] Of note, treatment concentrations may be sub-optimal for specific compounds, leading to false negative annotations.; details: Culturing Media DMEM/F12 (1:1), 1 % Penicillin/Streptomycin, 10% Fetal bovin serum Add-On: No, Screening Media Control DMEM/F12 (1:1), Screening Media Samples DMEM/F12 (1:1)
U2OS [1] = assay: as §1; details: Culturing Media DMEM, 1 % Penicillin/Streptomycin, 10% Fetal bovin serum Add-On: No, Screening Media Control DMEM, Screening Media Samples DMEM
U2OS [2] = assay: as §1; details: Culturing Media DMEM, 1 % Penicillin/Streptomycin, 10% Fetal bovin serum Add-On: No, Screening Media Control DMEM, Screening Media Samples DMEM; remark: listed apart in the source
[3] = Compound Concentration 0.5 uM, Timepoint 12 hours
[4] = Compound Concentration 0.5 uM, Timepoint 24 hours
[5] = Compound Concentration 0.5 uM, Timepoint 36 hours
[6] = Compound Concentration 0.5 uM, Timepoint 60 hours
[7] = Compound Concentration 2 uM, Timepoint 12 hours
[8] = Compound Concentration 2 uM, Timepoint 24 hours
[9] = Compound Concentration 2 uM, Timepoint 36 hours
[10] = Compound Concentration 2 uM, Timepoint 60 hours
[11] = Compound Concentration 10 uM, Timepoint 12 hours
[12] = Compound Concentration 10 uM, Timepoint 24 hours
[13] = Compound Concentration 10 uM, Timepoint 36 hours
[14] = Compound Concentration 10 uM, Timepoint 60 hours

Row | SMILES | autophagy induction (TERT-RPE1; [3]) [%] | autophagy induction (TERT-RPE1; [4]) [%] | autophagy induction (TERT-RPE1; [5]) [%] | autophagy induction (TERT-RPE1; [6]) [%] | autophagy induction (TERT-RPE1; [7]) [%] | autophagy induction (TERT-RPE1; [8]) [%] | autophagy induction (TERT-RPE1; [9]) [%] | autophagy induction (TERT-RPE1; [10]) [%] | autophagy induction (TERT-RPE1; [11]) [%] | autophagy induction (TERT-RPE1; [12]) [%] | autophagy induction (TERT-RPE1; [13]) [%] | autophagy induction (TERT-RPE1; [14]) [%] | autophagy induction (U2OS [1]; [3]) [%] | autophagy induction (U2OS [1]; [4]) [%] | autophagy induction (U2OS [1]; [5]) [%] | autophagy induction (U2OS [1]; [6]) [%] | autophagy induction (U2OS [1]; [7]) [%] | autophagy induction (U2OS [1]; [8]) [%] | autophagy induction (U2OS [1]; [9]) [%] | autophagy induction (U2OS [1]; [10]) [%] | also measured
1 | O=C(O)C1CN(Cc2ccc(-c3nc4cc(Cc5ccccc5F)ccc4s3)c(F)c2)C1 | -8.917 | -10.8072 | -9.562 | -5.859 | -8.468 | -9.963 | -11.3812 | -13.3438 | -4.678 | -6.178 | -7.73 | -6.2118 | 4.055 | -0.4566 | -1.32 | -0.5858 | 1.76 | 0.3602 | -0.6521 | -0.7655 | autophagy induction (U2OS [1]; [11]): -1.302%; autophagy induction (U2OS [1]; [12]): -1.781%; autophagy induction (U2OS [1]; [13]): -1.367%; autophagy induction (U2OS [1]; [14]): -0.5842%; autophagy induction (U2OS [2]; [3]): 3.797%; autophagy induction (U2OS [2]; [4]): -4.944%; autophagy induction (U2OS [2]; [5]): -8.688%; autophagy induction (U2OS [2]; [6]): -8.1655%; autophagy induction (U2OS [2]; [7]): 22.0588%; autophagy induction (U2OS [2]; [8]): 16.1887%; autophagy induction (U2OS [2]; [9]): 14.8366%; autophagy induction (U2OS [2]; [10]): 4.458%; autophagy induction (U2OS [2]; [11]): 26.4516%; autophagy induction (U2OS [2]; [12]): 18.766%; autophagy induction (U2OS [2]; [13]): 13.3531%; autophagy induction (U2OS [2]; [14]): 2.726%
2 | CNc1nc(NCc2ccc(NS(C)(=O)=O)cc2Cl)cc(-c2ccccn2)n1 | -1.3719 | -4.63 | -8.2685 | -4.377 | 1.95 | -3.372 | -5.053 | 1.232 | 14.7912 | 21.0269 | 30.7963 | 56.217 | -4.8332 | -1.906 | -1.0253 | -0.2766 | -0.6465 | 0.2341 | -0.0484 | 0.9042 | autophagy induction (U2OS [1]; [11]): -8.81%; autophagy induction (U2OS [1]; [12]): -3.343%; autophagy induction (U2OS [1]; [13]): -3.38%; autophagy induction (U2OS [1]; [14]): -6.97%; autophagy induction (U2OS [2]; [3]): 14.6542%; autophagy induction (U2OS [2]; [4]): 1.484%; autophagy induction (U2OS [2]; [5]): 3.538%; autophagy induction (U2OS [2]; [6]): 8.159%; autophagy induction (U2OS [2]; [7]): 23.6541%; autophagy induction (U2OS [2]; [8]): 10.7985%; autophagy induction (U2OS [2]; [9]): 11.9727%; autophagy induction (U2OS [2]; [10]): 23.1222%; autophagy induction (U2OS [2]; [11]): 27.3974%; autophagy induction (U2OS [2]; [12]): 31.2749%; autophagy induction (U2OS [2]; [13]): 36.9575%; autophagy induction (U2OS [2]; [14]): 46.6456%
3 | Cc1c(C2=CCN(C(=O)N(C)C(C)C)CC2)nnn1-c1cccnc1F | -7.351 | -10.2554 | -12.7414 | -13.7381 | -4.799 | -6.124 | -8.583 | -9.595 | -1.3221 | -2.795 | -0.6234 | 3.817 | 2.838 | 0.05909 | -0.5317 | -0.9964 | -1.633 | -1.565 | -0.7182 | -1.565 | autophagy induction (U2OS [1]; [11]): 1.202%; autophagy induction (U2OS [1]; [12]): 0.8484%; autophagy induction (U2OS [1]; [13]): 0.458%; autophagy induction (U2OS [1]; [14]): -1.904%; autophagy induction (U2OS [2]; [3]): 23.3711%; autophagy induction (U2OS [2]; [4]): 12.0378%; autophagy induction (U2OS [2]; [5]): 26.6789%; autophagy induction (U2OS [2]; [6]): 23.6658%; autophagy induction (U2OS [2]; [7]): -5.386%; autophagy induction (U2OS [2]; [8]): -5.642%; autophagy induction (U2OS [2]; [9]): -9.747%; autophagy induction (U2OS [2]; [10]): -4.534%; autophagy induction (U2OS [2]; [11]): -2.977%; autophagy induction (U2OS [2]; [12]): 0.8858%; autophagy induction (U2OS [2]; [13]): -1.59%; autophagy induction (U2OS [2]; [14]): 4.327%
